Reference: the OligoGym collection
“And” between values parts separate entries of the source, which are not always exact repeats. Equal values may be shown once. After the bases stand the sugars from the 5' end (letter, count) and the backbone: PS all phosphorothioate, else s phosphorothioate and o phosphodiester by linkage. Methylation of C is not given here. e = 2'-O-(2-methoxyethyl) (MOE); k = constrained ethyl (cEt); d = 2'-deoxy (DNA); m = 2'-O-methyl

Target: HSD17B13
Conditions: ASO, HepaRG

Row | Sequence | target mRNA inhibition (1 µM) [%] | further results
1 | AGAGGCAAGGATACCT (sugars k3 d10 k3, PS) | 78 | target mRNA inhibition (0.02 µM): 5%; target mRNA inhibition (0.078 µM): 7%; target mRNA inhibition (0.313 µM): 39%; target mRNA inhibition (1.25 µM): 68%; target mRNA inhibition (5 µM): 40%
2 | TGGAATGCTACTTGAA (sugars k3 d1 m1 d8 k3, PS) | 79 | target mRNA inhibition (0.02 µM): 13%; target mRNA inhibition (0.078 µM): 27%; target mRNA inhibition (0.313 µM): 35%; target mRNA inhibition (1.25 µM): 66%; target mRNA inhibition (5 µM): 91%
3 | AATGCTACTTGAACAG (sugars kkdddddddddkekek, PS) | 39 | 
4 | TACAGATTGGAATGCT (sugars k3 d9 k3 e1, PS) | 66 | 
5 | CCTAGATTCTACACTA (sugars k3 d10 k3, PS) | 14 | 
6 | AACCATAGGACATGGA (sugars k3 d10 k3, PS) | 71 | 
7 | CACTGTGACGATGTGG (sugars k3 d10 k3, PS) | 10 | 
8 | TTTCATAGCTCACTTA (sugars k3 d10 k3, PS) | 16 | 
9 | ATCTGTCTCCAATACA (sugars k3 d10 k3, PS) | 55 | 
10 | TTAAGATACCCAGGTT (sugars k3 d1 m1 d8 k3, PS) | 30 | 
11 | CTATGTAATAGGCAGT (sugars k3 d10 k3, PS) | 73 | target mRNA inhibition (0.02 µM): 18%; target mRNA inhibition (0.078 µM): 20%; target mRNA inhibition (0.313 µM): 63%; target mRNA inhibition (1.25 µM): 75%; target mRNA inhibition (5 µM): 86%
12 | GAAGTGATCCATATTC (sugars k3 d10 k3, PS) | 44 | 
13 | TCCCAACCCAAGCTAC (sugars k3 d10 k3, PS) | 8 | 
14 | GAAGUTAGTATAGTTA (sugars k3 d1 m1 d8 k3, PS) | 43 | 
15 | CTTGATGTAGTGGGAG (sugars k3 d9 k3 e1, PS) | 62 | 
16 | ACAGUCTTAAACCTTC (sugars k3 d1 m1 d8 k3, PS) | 81 | target mRNA inhibition (0.02 µM): 19%; target mRNA inhibition (0.078 µM): 35%; target mRNA inhibition (0.313 µM): 41%; target mRNA inhibition (1.25 µM): 67%; target mRNA inhibition (5 µM): 85%
17 | GGAATGCTCATATTAA (sugars k3 d10 k3, PS) | 19 | 
18 | AATTGATACACCAATG (sugars kkdddddddddkekek, PS) | 50 | 
19 | TTGAGATAAAGCTGCC (sugars kkkdddddkdddkkke, PS) | 43 | 
20 | ACTCTATTGATTGGCT (sugars k3 d10 k3, PS) | 57 | 
21 | CCTTGTGTAGTCCTAG (sugars k3 d10 k3, PS) | 67 | target mRNA inhibition (0.02 µM): 4%; target mRNA inhibition (0.078 µM): 28%; target mRNA inhibition (0.313 µM): 44%; target mRNA inhibition (1.25 µM): 72%; target mRNA inhibition (5 µM): 85%
22 | TTACATATCAATGCCT (sugars k3 d10 k3, PS) | 12 | 
23 | CTCAGGCTGTAAGAGT (sugars k3 d1 m1 d8 k3, PS) | 46 | 

Row | Sequence | target mRNA inhibition (1 µM) [%] | further results
24 | CTGCTGAAACTTGATC (sugars k3 d10 k3, PS) | 50 | 
25 | ATATAGCCCTTTCCCC (sugars k3 d10 k3, PS) | 26 | 
26 | AAGAGTCAGTATCCTC (sugars kkdddddddddkekek, PS) | 14 | 
27 | AACCAATCCTCAGCTT (sugars k3 d10 k3, PS) | 0 | 
28 | ACATTGCAGTTATTAG (sugars k3 d10 k3, PS) | 42 | 
29 | GATCAAATGTATGTGC (sugars k3 d10 k3, PS) | 25 | 
30 | TTGGTGAACCCAGTAT (sugars k3 d10 k3, PS) | 31 | 
31 | GCCCTAGATTCTACAC (sugars k3 d10 k3, PS) | 15 | 
32 | TAGTATTTGGGTGTTC (sugars k3 d10 k3, PS) | 27 | 
33 | GAATAGCAAGCCAACA (sugars k3 d10 k3, PS) | 64 | target mRNA inhibition (0.02 µM): 0%; target mRNA inhibition (0.078 µM): 4%; target mRNA inhibition (0.313 µM): 12%; target mRNA inhibition (1.25 µM): 20%; target mRNA inhibition (5 µM): 40% and 50%
34 | AGGCTGTAAGAGTCAG (sugars k3 d10 k3, PS) | 74 | 
35 | GCTGAGAGAGTATTTC (sugars k3 d10 k3, PS) | 51 | 
36 | TCCAAGGAGTGCATCT (sugars k3 d10 k3, PS) | 46 | 
37 | TAGGATGATGTTCATG (sugars k3 d10 k3, PS) | 72 | 
38 | GAATAGCAAGCCAACA (sugars k3 d9 k3 e1, PS) | 30 | 
39 | ATTGTTTAGCTGATAG (sugars k3 d10 k3, PS) | 61 | 
40 | GATAGTCCATGCAAAA (sugars k3 d10 k3, PS) | 64 | 
41 | GTGTTAGCTTTAATTT (sugars k3 d10 k3, PS) | 48 | 
42 | AGATTAGTCTTGATGT (sugars k3 d10 k3, PS) | 63 | 
43 | AGATGGGCAAGGCCAC (sugars k3 d10 k3, PS) | 59 | 
44 | TTTTATAGACTGGGTA (sugars k3 d10 k3, PS) | 53 | 
45 | GACCTCAAATGTCTTG (sugars k3 d10 k3, PS) | 12 | 
46 | GTTCTTGTTGATATTC (sugars k3 d9 k3 e1, PS) | 69 | 

Row | Sequence | target mRNA inhibition (1 µM) [%] | further results
47 | TCCAUAATAATAGCTC (sugars k3 d1 m1 d8 k3, PS) | 58 | 
48 | ATGCUACTTGAACAGT (sugars k3 d1 m1 d8 k3, PS) | 46 | 
49 | AGGTTTTGATACCAGT (sugars k3 d10 k3, PS) | 60 | 
50 | TGAGAAGATCGGCTGG (sugars k3 d10 k3, PS) | 37 | 
51 | GACTGTTGAGCTCAAA (sugars k3 d10 k3, PS) | 52 | 
52 | TAAGCAGAATTGTGAA (sugars k3 d10 k3, PS) | 35 | 
53 | AGCTAAGTATACTTTC (sugars k3 d10 k3, PS) | 18 | 
54 | ACAACTGGAGGTATGT (sugars k3 d10 k3, PS) | 0 | 
55 | GCCTTGAATAGCAAGC (sugars kkdddddddddkekek, PS) | 16 | 
56 | CCCAAGGCCTGAAGTT (sugars k3 d10 k3, PS) | 61 | 
57 | TGTAAAGGCTGGGTGA (sugars k3 d10 k3, PS) | 26 | 
58 | ACAGTCTTAAACCTTC (sugars k3 d10 k3, PS) | 76 | target mRNA inhibition (0.02 µM): 5%; target mRNA inhibition (0.078 µM): 16%; target mRNA inhibition (0.313 µM): 52%; target mRNA inhibition (1.25 µM): 75%; target mRNA inhibition (5 µM): 80%
59 | TTACATTACAGCCTTA (sugars k3 d10 k3, PS) | 67 | target mRNA inhibition (0.02 µM): 0%; target mRNA inhibition (0.078 µM): 0%; target mRNA inhibition (0.313 µM): 19%; target mRNA inhibition (1.25 µM): 56%; target mRNA inhibition (5 µM): 80%
60 | GAATACGCTGAGAGTT (sugars k3 d10 k3, PS) | 11 | 
61 | CTCTTAGCTGTGCACT (sugars kkdddddddddkekek, PS) | 56 | 
62 | TTTTAACTACCCTCAC (sugars k3 d10 k3, PS) | 2 | 
63 | AAGAGGATAGTCCATG (sugars k3 d10 k3, PS) | 65 | 
64 | ACAGTCTTAAACCTTC (sugars kkdddddddddkekek, PS) | 46 | 
65 | TAAACATCTCTGGGAC (sugars k3 d10 k3, PS) | 51 | 
66 | GCATTATTCACCACGA (sugars k3 d10 k3, PS) | 59 | 
67 | CCTTACTAAGGAAATT (sugars k3 d10 k3, PS) | 28 | 
68 | ACAATATGGGATGAGG (sugars k3 d9 k3 e1, PS) | 76 | target mRNA inhibition (0.02 µM): 0%; target mRNA inhibition (0.078 µM): 0%; target mRNA inhibition (0.313 µM): 0%; target mRNA inhibition (1.25 µM): 39%; target mRNA inhibition (5 µM): 55%
69 | AAATGTCCTAGGATGT (sugars k3 d10 k3, PS) | 36 | 

Row | Sequence | target mRNA inhibition (1 µM) [%] | further results
70 | TCTAAACATCTCTGGG (sugars kkdddddddddkekek, PS) | 21 | 
71 | ACGGTGATCAAATGTA (sugars k3 d10 k3, PS) | 53 | 
72 | AGAGCCAAACTGCTAC (sugars k3 d10 k3, PS) | 55 | 
73 | CTCAAATGTCTTGGTA (sugars k3 d10 k3, PS) | 29 | 
74 | TTAAACTCCAATGTGT (sugars k3 d10 k3, PS) | 36 | 
75 | GATTAATTCCCTTCCA (sugars k3 d10 k3, PS) | 30 | 
76 | AGGGAATTTATCAAAC (sugars k3 d10 k3, PS) | 47 | 
77 | TTGCTGGAACAATATG (sugars k3 d10 k3, PS) | 20 | 
78 | CCATGGATCTAGAACA (sugars k3 d10 k3, PS) | 15 | 
79 | CTAGGAAGTGATCCAT (sugars k3 d10 k3, PS) | 66 | 
80 | TCCATAATAATAGCTC (sugars kkdddddddddkekek, PS) | 41 | 
81 | GCATCTTAAGATACCC (sugars kkdddddddddkekek, PS) | 41 | 
82 | ATATCAATGCCTTAGC (sugars k3 d10 k3, PS) | 32 | 
83 | ATAGTCCATGCAAAAG (sugars kkdddddddddkekek, PS) | 31 | 
84 | TTGATATACGATGGAA (sugars k3 d10 k3, PS) | 38 | 
85 | GTCCTAGGATGTTGAC (sugars k3 d10 k3, PS) | 1 | 
86 | GCTAGTGCCAAACCAA (sugars k3 d10 k3, PS) | 70 | target mRNA inhibition (0.02 µM): 0%; target mRNA inhibition (0.078 µM): 8%; target mRNA inhibition (0.313 µM): 39%; target mRNA inhibition (1.25 µM): 65%; target mRNA inhibition (5 µM): 87%
87 | ATTAGAAGTCAGCCCA (sugars k3 d10 k3, PS) | 42 | 
88 | AGTAATCAGTTTTCCT (sugars k3 d10 k3, PS) | 65 | 
89 | AGTAGTGTAAGCTGAG (sugars k3 d10 k3, PS) | 88 | target mRNA inhibition (0.02 µM): 0%; target mRNA inhibition (0.078 µM): 4%; target mRNA inhibition (0.313 µM): 50%; target mRNA inhibition (1.25 µM): 78%; target mRNA inhibition (5 µM): 92%
90 | AGTAAGGTAAAGTCTA (sugars k3 d10 k3, PS) | 55 | 
91 | AACTAGGAAGTGATCC (sugars k3 d10 k3, PS) | 58 | 
